The results in this text go back to US8614213B2 (Novartis AG, priority 2008, dated 2013).

Sequence of human recombinant CRF-1 receptor (P34998 24-415): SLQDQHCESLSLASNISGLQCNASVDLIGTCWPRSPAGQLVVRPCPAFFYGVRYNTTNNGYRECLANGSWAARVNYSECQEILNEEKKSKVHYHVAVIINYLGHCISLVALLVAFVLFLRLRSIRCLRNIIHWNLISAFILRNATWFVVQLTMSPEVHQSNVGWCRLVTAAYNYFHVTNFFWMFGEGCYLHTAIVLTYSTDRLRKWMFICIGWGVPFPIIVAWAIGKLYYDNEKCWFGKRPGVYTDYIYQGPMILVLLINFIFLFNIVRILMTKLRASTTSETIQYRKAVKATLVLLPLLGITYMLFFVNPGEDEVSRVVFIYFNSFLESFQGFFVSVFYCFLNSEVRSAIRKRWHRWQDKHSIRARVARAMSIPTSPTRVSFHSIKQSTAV

In this experiment the target is human recombinant CRF-1 receptor (Homo sapiens (Human), UniProt P34998). In words: CRF-1 receptor antagonism, HTRF cAMP assay in CHO cells in the presence of 1 nM CRF. Type of experiment: cell-based. The settings on record: CHO cells expressing human recombinant CRF-1. As for the experimental part: The CRF-1 or CRF-2a receptor antagonistic activity of the agents of the invention has been determined in vitro in the following assay:
Chinese hamster ovary (CHO) cells expressing either the human recombinant CRF-1 or CRF-2a receptors (Chen et al., Proc Natl Acad Sci USA 90, 8967-8971, 1993; Liaw et al., Endocrinology 137, 72-77, 1996) are propagated in Dulbecco's modified Eagle medium supplemented with 10% foetal calf serum, non-essential amino acids, 100 U/ml penicillin, 100 mg/l streptomycin and 1 g/l geneticin (G418). For cyclic AMP determinations the Homogeneous Time-Resolved Fluoresce (HTRF) cAMP dynamic 2 kit (Cisbio International, France) was used as per manufacturers' instructions. CHO cells, previously cryopreserved, were thawed, centrifuged for 7 mins at 1200 rpm and resuspended in serum free media, then pipetted out onto clear bottomed black tissue culture treated 384-well microtitre plates (Corning Inc, US) at 2,000 cells per well. Compounds of the invention, prepared in DMSO, and subsequently diluted 50 fold in assay buffer (1× Hanks balanced salt solution, 0.2% (w/v) bovine serum albumin, 1.7 mM isobutylmethylxanthine and 10 mM Hepes, pH7.4) are then added onto the cell containing plate where a further 2 fold dilution is performed and incubated for 15 min. Following incubation, buffer containing a 5 times final concentration of agonist is added to the plate and incubated for 30 min. Finally, d2 dye labelled cAMP and cryptate labeled anti-cAMP antibody, both made in lysis buffer, are added to the plate followed by a settling period of 1 hour. During the settling period cAMP produced by the cells competes with the d2 labelled cAMP for the anti-cAMP cryptate. The plate is read on the Pherastar (BMG, Germany). […] Values represented by a change in arbitrary fluorescence units are converted into cAMP concentrations by use of a standard curve the reagents for which are supplied with the kit. […] IC50 values of antagonists are calculated by fitting the percent inhibition of the effect of CRF by increasing concentrations of the antagonists. […]
On the technique in general: TR-FRET usually uses a lanthanide donor and a delayed reading to cut background.
Consider “2-Chloro-N-(2RS-methyl-4-phenylaminomethyl-cyclohexyl)-5-trifluoromethyl-benzamide [Example 16]”, for which the IC50 (in general, the point on the concentration scale where inhibition reaches its midpoint) was found to be 51 nM.
With `Cc1cc(N2CCNC2=O)nn1C[C@H]1CC[C@H](NC(=O)c2cc(C(F)(F)F)ccc2Cl)CC1` [Example 21.5, 2-Chloro-N-{4-[5-methyl-3-(2-oxo-imi-dazolidin-1-yl)-pyrazol-1-ylmethyl]-cyclohexyl}-5-trifluoromethyl-ben zamide] the figure was 157 nM; with `Cc1nn(C[C@H]2CC[C@H](NC(=O)c3cc(C(F)(F)F)ccc3Cl)CC2)c(C)c1C` [Example 21.11], 140 nM.
